Measured values reported in patent US20160150778A1, “PLASTIC HAVING A BIOCIDAL SURFACE AND METHOD FOR PRODUCING SAID PLASTIC” (JANSEN AG, priority 2013, published 2016).

Assays:
[1] = discoloration / decomposition of quat on compounding into polyethylene melt; format: physicochemical; design: key: ++: heavy discoloration; +: discoloration; 0: weak discoloration; −: hardly any discoloration
Procedure: Experiments were carried out in which the additives shown in Table 2 were processed into a polyethylene melt in a concentration of 2.5%, 5% and 10% into polyethylene RT Dowlex 2388. The compounding conditions included 12 minutes of mixing at 210° C. Partial decomposition of the quat was observed during this step.
Part of the time, a strong violet coloration and a (“fishy”) smell of amines were observed, in particular with additives containing multiple methyl groups and at high concentrations. The probable decomposition mechanism is a Hofmann decomposition.

[2] = solubility of the oil in solvents; format: physicochemical
Procedure: A 250 mL flask was filled with 37.92 g (52.5 mmol) of PEG (400) ditosylate. Approximately 100 mL of acetone was added, followed by 16.5 g (approximately 21.6 mL or 104.9 mmol) of dimethyloctylamine. […] The oil was soluble in acetone, chloroform and water, but insoluble in ethyl acetate.

[3] = 2.5% additive in polyethylene RT Dowlex 2388, 12 minutes of mixing at 210° C
[4] = 5% additive in polyethylene RT Dowlex 2388, 12 minutes of mixing at 210° C
[5] = 10% additive in polyethylene RT Dowlex 2388, 12 minutes of mixing at 210° C

| Molecule | discoloration [1, 3] | discoloration [1, 4] | discoloration [1, 5] | solubility ([2]; acetone) | solubility ([2]; chloroform) | solubility ([2]; ethyl acetate) | solubility ([2]; water) |
| --- | --- | --- | --- | --- | --- | --- | --- |
| CCCCCCCCCCCCCCCCCC[N+](C)(C)C [additive B] | 0 | + | ++ |  |  |  |  |
| α,ω-bis(dimethyloctylammonium)PEG(400) ditosylate |  |  |  | soluble | soluble | insoluble | soluble |
| Br.CCCCCCCCCCCCCCCCCCN(CCCCCCCCCCCCCCCCCC)CCCCCCCCCCCCCCCCCC [additive E] | − | − | − |  |  |  |  |
| CCCCCCCCCCCCCCCCCC[N+](C)(C)CCCCCCCCCCCCCCCCCC [additive C] | 0 | 0 | + |  |  |  |  |
| Br.CCCCCCCCCCCCCCCCCCN(C)CCCCCCCCCCCCCCCCCC [additive D] | − | − | 0 |  |  |  |  |
| CCCCCCCCCCCCCCCCCC[N+](C)(C)Cc1ccccc1 [additive A] | + | + | + |  |  |  |  |
